Reference: PMC12627007, “HIV nucleocapsid proteins as targets for novel 1,2-benzisothiazol-3(2H)-one benzenesulfonamides: synthesis and antiretroviral activity” (Frontiers in Microbiology, 2025)
Where two headings read alike, the source gives them in different places.

Assays:
[1] = test system: chronically HIV-1-infected H9 cells / uninfected C8166 cells; experiment: Syncytium formation in chronically infected H9/C8166 cocultures (entry assay); type: cell-based; conditions: 30 μM, 36 h
Description: Chronically infected H9 cells were washed and cocultured with uninfected C8166 cells (ratio 1:500) in the absence or presence of test inhibitors. Following 36 h of incubation at 37 °C, cocultures were monitored by optical microscopy, syncytia were counted, and those found in drug-treated cocultures were reported as a percentage of those counted in untreated cocultures ([Wang et al., 2004]).
In this assay, syncytia were formed as a result of the interaction of env-encoded glycoproteins (present on the outer membrane of chronically infected H9 cells) with the CD4 of cocultured C8166 cells.
Figure 3 Comparative activity of compound 6 (30 μM) and dextran sulphate (0.5 μM) in preventing syncytium formation in chronically infected H9/C8166 cocultures. The H9/C8166 ratio was […]. The cells were incubated for 36 h at 37 °C. Data represent mean values of at least three independent determinations of syncytial numbers using an optical microscope. Bars are mean values, and whiskers are standard deviations (SD) of at least three independent experiments.

[2] = test system: HIV-1 EFVR (K103R + V179D + P225H); experiment: Inhibition of virus-induced cytopathogenicity in MT-4 cells, NNRTI-resistant mutant EFVR; type: cell-based
Outline: (§1)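 Inhibition of virus-induced cytopathogenicity in MT-4 cells (1 × 10^4 per well) infected with wild-type IIIB or resistant mutants at m.o.i. 0.01, with serially diluted compound present from infection. Virus input was set to give complete cytopathogenicity on day 4. The EFVR mutant was selected by IIIB passage under Efavirenz.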

[3] = test system: HIV-1 MDR (74V, 41L, 106A, 215Y); experiment: Inhibition of virus-induced cytopathogenicity in MT-4 cells, NRTI-resistant mutant MDR; type: cell-based
Outline: as §1

[4] = test system: HIV-1 A17 (K103N + Y181C); experiment: Inhibition of virus-induced cytopathogenicity in MT-4 cells, NNRTI-resistant mutant A17; type: cell-based
Outline: as §1

[5] = target: T1, HIV-1 recombinant integrase (rIN) (Human immunodeficiency virus type 1 group M subtype B, UniProt P04585); experiment: Integrase (rIN) enzyme assays: 3'-processing and strand transfer; type: biochemical; conditions: for IC50: recombinant HIV-1 integrase
T1 construct: HIV-1 recombinant integrase (rIN); made in house
Source text: ^aCompound concentration (µM) required to reduce the amount of 3’-end-labeled duplex of 21/19mers substrates, in 3’-processing and strand-transfer reactions catalyzed by the recombinant HIV-1 integrase, by 50%. Data represent mean values for three independent determinations.

[6] = target: T2, HIV-1 reverse transcriptase (Human immunodeficiency virus type 1 group M subtype B, UniProt P04585); experiment: Reverse transcriptase enzyme assay; type: biochemical
T2 construct: recombinant HIV-1 reverse transcriptase

[7] = test system: HIV-1 AZTR (67N, 70R, 215F, 219Q); experiment: Inhibition of virus-induced cytopathogenicity in MT-4 cells, NRTI-resistant mutant AZTR; type: cell-based
Outline: as §1

[8] = microbe, parasite or virus in culture; type: cell-based, HIV-1; conditions: all tested strains (HIV-1 wt, mutants, HIV-2)
Outline: as §1

HIV-1 IIIB strain = experiment: microbe, parasite or virus in culture; type: cell-based; conditions: for EC50: Human immunodeficiency virus 1, IIIB
Outline: as §1

[9] = Cytotoxicity in mock-infected MT-4 cells (MTT method); type: cell-based; conditions: human
Outline: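 Mock-infected MT-4 cells (1 × 10^4 per well) incubated at 37 °C with serial concentrations of test compound, run in parallel with the HIV cytopathogenicity assay (day-4 read). Viability read by MTT method.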

HIV-1 N119 (Y181C) = experiment: Inhibition of virus-induced cytopathogenicity in MT-4 cells, NNRTI-resistant mutant N119; type: cell-based
Outline: as §1

HIV-2 CBL-20 strain = experiment: Inhibition of HIV-2-induced cytopathogenicity in C8166 cells (MTT); type: cell-based
Description: HIV-1IIIB and HIV-2 CBL-20 strains were obtained from the supernatants of persistently infected H9/IIIB and CEM cells, respectively. HIV-1 and HIV-2 stock solutions had titres of 4.5 × 10^7 and 1.4 × 10^6 50% cell culture infectious doses (CCID50)/ml, respectively. […] The K103R + V179D + P225H mutant (EFVR) was derived from an IIIB strain passaged in MT-4 cells in the presence of Efavirenz (up to 2 μM). N119, A17 and EFV^R stock solutions had titres of 1.2 × 10^8, 2.1 × 10^7, and 4.0 × 10^7 CCID50/ml, respectively.
The activity of the test compounds against the replication of HIV-1 wt and mutant strains (N119, A17, EFV^R, AZT^R, MDR, SAQ^R) and HIV-2 wt in acutely infected cells was based on the inhibition of virus-induced cytopathogenicity in MT-4 and C8166 cells, respectively. Briefly, 50 μL of culture medium containing 1 × 10^4 cells was added to each well of flat-bottom microtitre trays containing 50 μL of culture medium with or without different serial concentrations of test compounds. Then, 20 μL of an HIV suspension (containing the appropriate amount of CCID50 required to cause complete cytopathogenicity on day 4, final multiplicity of infection [m.o.i.] 0.01) was added.

[10] = test system: HIV-1 SAQR (L10F, G48V, L90M); experiment: Inhibition of virus-induced cytopathogenicity in MT-4 cells, PRI-resistant mutant SAQR; type: cell-based
Outline: as §1

HIV-1 wt = experiment: Time of addition assay in MT-4 cells; type: cell-based; conditions: compound 6 15 μM, EFV 0.05 μM; MT-4, m.o.i. 5
Description: 2 × 10^4 MT-4 cells were infected for 1 h at 20 °C with HIV-1 at a high multiplicity of infection (m.o.i. = 5), corresponding to 5 cell culture infectious dose 50 per cell (CCID50/cell).
(§2) Titration was performed in C8166 cells using the standard limiting dilution method (dilution 1:2, four replica wells/dilution) in 96-well plates.
Virus yields were determined using the Reed–Muench method. Bars are mean values, and whiskers are standard deviations (SD) of three independent experiments.

cell-free HIV-1 = experiment: Virucidal activity against cell-free HIV-1 (Reed-Muench titration); type: cell-based; conditions: for Infectivity inactivation of cell-free HIV-1: 37 °C
Description: (§3) Cell-free, high-titre HIV-1 and HIV-2 stock solutions were exposed to the test compounds for 2 h at 0 °C or 37 °C. At the end of incubation, residual infectivity was determined using the Reed–Muench end-point titration method, as described below.
as §2

cell-free HIV-2 = experiment: Virucidal activity against cell-free HIV-2 (Reed-Muench titration); type: cell-based
Description: as §3, §2

[11] = 0 °C, compound 6 80 μM, AMPH-B 100 μM

Question: Which results are given for `O=c1c2ccccc2sn1NS(=O)(=O)c1ccccc1` [Compound 6, N-(3-Oxo-1,2-benzisothiazol-2(3H)-yl)benzenesulfonamide]?
Answer: Interference with syncytia formation / very early events (adsorption/attachment/fusion) [1]: did not interfere; EC50 ([2]; Human immunodeficiency virus 1, MT4, read-out: EC50 EFVR): 7 ± 2 µM; Selectivity Index (SI = CC50/EC50) EFVR ([2]; in round brackets): 12; EC50 ([3]; Human immunodeficiency virus 1, MT4, read-out: EC50 MDR): 4 ± 1.5 µM; Selectivity Index (SI = CC50/EC50) MDR ([3]; in round brackets): 21; EC50 ([4]; Human immunodeficiency virus 1, MT4, read-out: EC50 A17): 8 ± 1 µM; Selectivity Index (SI = CC50/EC50) A17 ([4]; in round brackets): 10; Inhibition of recombinant HIV-1 IN ([5]; at concentrations of 30 μM): none of the benzenesulfonamides were active; IC50 ([5]; read-out: IC50 3'-Processing): > 30 µM; IC50 ([5]; read-out: IC50 Strand-transfer): > 30 µM; Inhibition of recombinant HIV-1 RT ([6]; at concentrations of 30 μM): none of the benzenesulfonamides were active; IC50 ([6]; virion-associated RT): > 30 µM; EC50 ([7]; Human immunodeficiency virus 1, MT4, read-out: EC50 AZTR): 6 ± 0.7 µM; Selectivity Index (SI = CC50/EC50) AZTR ([7]; in round brackets): 14; Selectivity Index (SI) against all tested strains [8]: around 10; EC50 (HIV-1 IIIB strain; MT4, read-out: EC50 HIV-1): 8 ± 3 µM; EC50 (HIV-1 IIIB strain; MT4, read-out: EC50 HIV-1 (Table 2)): 8 ± 3 µM; Selectivity Index (SI = CC50/EC50) HIV-1 (HIV-1 IIIB strain; IIIB strain, in round brackets): 10; CC50 at 4 days [9]: 86 ± 4 µM; EC50 (HIV-1 N119 (Y181C); Human immunodeficiency virus 1, MT4, read-out: EC50 N119): 7 ± 1.5 µM; Selectivity Index (SI = CC50/EC50) N119 (HIV-1 N119 (Y181C); in round brackets): 12; EC50 (HIV-2 CBL-20 strain; Human immunodeficiency virus 2, C8166, read-out: EC50 HIV-2): 7 ± 0.7 µM; EC50 (HIV-2 CBL-20 strain; Human immunodeficiency virus 2, C8166, read-out: EC50 HIV-2 (Table 2)): 7 ± 0.7 µM; Selectivity Index (SI = CC50/EC50) HIV-2 (HIV-2 CBL-20 strain; in round brackets): 12; EC50 ([10]; Human immunodeficiency virus 1, MT4, read-out: EC50 SAQR): 8 ± 0.7 µM; Selectivity Index (SI = CC50/EC50) SAQR ([10]; in round brackets): 10; Infectious virus yield when compound present only during the 1-h infection period (HIV-1 wt): infectious virus yield similar to that of the untreated infected controls; Time of addition p.i. up to which the compound still prevents virus yield (HIV-1 wt): up to 12 h; Effect on HIV-1 infectivity, incubation at 0 °C (cell-free HIV-1; [11]): failed to affect HIV-1 infectivity; Infectivity inactivation of cell-free HIV-1 (cell-free HIV-1; 25 and 12.5 μM): only marginal or no effects; Infectivity inactivation of cell-free HIV-1 (cell-free HIV-1; 100 and 50 μM): strongly inactivated the infectivity; Inactivation of HIV-1 infectivity (cell-free HIV-1; 2 h at 37 °C, compound 6 80 μM, AMPH-B 100 μM): more than 3 log10; Effect on HIV-2 infectivity, incubation at 0 °C (cell-free HIV-2; [11]): failed to significantly affect HIV-2 infectivity; Infectivity inactivation of cell-free HIV-2 (cell-free HIV-2; 25 and 12.5 μM, 37 °C): only marginal or no effects; Inactivation of HIV-2 virion infectivity (cell-free HIV-2; 37 °C, compound 6 80 μM, AMPH-B 100 μM): approximately 2 log10; Infectivity inactivation of cell-free HIV-2 (cell-free HIV-2; 100 and 50 μM, 37 °C): strongly inactivated the infectivity
